Data on one compound can be found in patent publication US20130149383A1, “SUSTAINED RELEASE PARTICLE FORMULATIONS OF GUAIFENESIN” (priority 2011, published 2013).

For series [1] the following is noted: cited from earlier work.
Series [2] in a line: Equilibrium solubility determination in liquid vehicle (HPLC). It counts as physicochemical. The following applies: 40 °C, thermodynamic from solid; guaifenesin in liquid vehicle, 40° for two days, n=3. On the procedure:
The objective of this example was to determine the […] using “HPLC protocol”. About 500 mg of guaifenesin was added into 20 ml of a liquid vehicle. The suspend solution were then shaken and then placed at 40° for two days. The supernatant was then filtered off using a syringe with a 0.45 μm filter, and diluted so that the absorbencies fell within the UV (25-fold dilution). The diluted clear solutions were equilibrium solubility samples, termed as “samples” in the “HPLC protocol’. The “HPLC protocol” was then followed (See below).
A 20 mL of stock solution of the drug was prepared in DI water at a concentration of 1 mg/mL. The solution was left at room temperature for 5 min to get the drug dissolved. The stock solution was appropriately diluted to get several concentrations ranging from 0.1 mg/mL to 1 mg/mL (See FIG. 1). Samples were prepared by appropriately diluting the samples collected using “USP dissolution protocol” to ensure that the drug concentration level falls within the range of the standard curve (e.g., 2× dilution).
HPLC was prepared by first washing the column with the wash buffer (acetonitrile:water 50:50 (v/v)) for 10 min. […]

In brackets after ≈: the same amount, converted by molar mass.

For orientation: solubility (thermodynamic) means the concentration in solution at equilibrium with solid. Take `COc1ccccc1OCC(O)CO` (centres unmarked) [Guaifenesin, 3-(2-methoxyphenoxy)-1,2-propanediol]: in series [1], the water solubility entry is recorded as “highly water soluble”. Besides, in series [2], the thermodynamic solubility at 2 days was found to be 9590 ± 340 µg/mL (≈ 48.4 mM).
